Results reported in publication PMC12186257, “Serendipitous and Systematic Chemoproteomic Discovery of MBLAC2, HINT1, and NME1‑4 Inhibitors from Histone Deacetylase-Targeting Pharmacophores” (ACS Chemical Biology, 2025).

Key:
GATD3A = target: T1, GATD3A (Homo sapiens, UniProt P0DPI2); test: chemoproteomic competition assay (MV4-11/SW620 lysate, iA/iC/iQ beads, MS readout); format: binding; conditions: nine-dose competition assay; range stated for ALDH2 and GATD3A together
T1 construct: incubated at increasing concentrations with a mixture of lysates of MV4–11 and SW620 cells; endogenous in cells; host or cells: mixed lysate of MV4-11 and SW620 cells
T1 sequence (P0DPI2 42-268): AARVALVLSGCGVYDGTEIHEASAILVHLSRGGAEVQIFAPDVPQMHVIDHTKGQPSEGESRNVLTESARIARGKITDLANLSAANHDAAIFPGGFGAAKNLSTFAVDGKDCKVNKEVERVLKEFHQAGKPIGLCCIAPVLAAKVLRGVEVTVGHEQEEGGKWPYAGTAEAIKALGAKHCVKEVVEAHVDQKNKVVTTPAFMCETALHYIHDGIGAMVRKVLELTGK
Description: (§1) MBLAC2 is a metalloenzyme predicted to harbor one or two Zn^2+ ions in its active site. […] In this assay, compounds of interest are incubated at increasing concentrations with a mixture of lysates of MV4–11 and SW620 cells. The compound-treated lysates are then mixed with bead-immobilized hydroxamic acid-containing compounds iA, iC, and iQ (immobilized Quisinostat), which pull down compound-binding proteins such as HDACs, MBLAC2, ISOC1/2, ALDH2, and GATD3A (Figure a) that can be identified and quantified by mass spectrometry (MS). Proteins targeted by the library compounds in a preincubation step are prevented from being pulled down by the immobilized probes, leading to a dose-dependent reduction in MS signal. Initially, 12 metal-chelating compounds were profiled at two concentrations (10 μM and 100 μM) (Figure S3).
(§2) Chemoproteomic competition assays
(§3) Sample preparation. […]
(§4) LC-MS/MS. The different sample types were measured with different LC-MS/MS settings. MBLAC2 2-dose competition assays were measured with the Lumos1 setup, MBLAC2 9-dose competition assays were measured with the Lumos2 setup, and kinobeads assays were measured with the Eclipse setup.
(§5) Peptides were analyzed via LC–MS/MS on a Dionex Ultimate3000 nano HPLC coupled to either one of two Orbitrap Fusion Lumos mass spectrometers, or to an Orbitrap Eclipse mass spectrometer, operated via the Thermo Scientific Xcalibur software. […]
(§6) In Lumos settings, up to 12 peptide precursors were isolated in (isolation width of 1.2 Th for Lumos1 and 1.7 for Lumos2, maximum injection time of 75 ms, AGC value of 1e5 for Lumos1 and 2e5 for Lumos2), fragmented by HCD using 30% normalized collision energy (NCE) and analyzed in the Orbitrap at a resolution of 15,000 (Lumos2) or 30,000 (Lumos1). […] Peptides were isolated in the quadrupole with an isolation offset of 1.2 (isolation width of 1.2 Th, maximum injection time of 54 ms, AGC target of 200%) and fragmented by HCD with an NCE of 30% and analyzed in the Orbitrap at a resolution of 30,000. […]

ALDH2 = target: T2, ALDH2 (Homo sapiens, UniProt P05091); test: as above; format: binding; conditions: nine-dose competition assay; range stated for ALDH2 and GATD3A together
T2 construct: incubated at increasing concentrations with a mixture of lysates of MV4–11 and SW620 cells; endogenous in cells; host or cells: mixed lysate of MV4-11 and SW620 cells
T2 sequence (P05091 18-517): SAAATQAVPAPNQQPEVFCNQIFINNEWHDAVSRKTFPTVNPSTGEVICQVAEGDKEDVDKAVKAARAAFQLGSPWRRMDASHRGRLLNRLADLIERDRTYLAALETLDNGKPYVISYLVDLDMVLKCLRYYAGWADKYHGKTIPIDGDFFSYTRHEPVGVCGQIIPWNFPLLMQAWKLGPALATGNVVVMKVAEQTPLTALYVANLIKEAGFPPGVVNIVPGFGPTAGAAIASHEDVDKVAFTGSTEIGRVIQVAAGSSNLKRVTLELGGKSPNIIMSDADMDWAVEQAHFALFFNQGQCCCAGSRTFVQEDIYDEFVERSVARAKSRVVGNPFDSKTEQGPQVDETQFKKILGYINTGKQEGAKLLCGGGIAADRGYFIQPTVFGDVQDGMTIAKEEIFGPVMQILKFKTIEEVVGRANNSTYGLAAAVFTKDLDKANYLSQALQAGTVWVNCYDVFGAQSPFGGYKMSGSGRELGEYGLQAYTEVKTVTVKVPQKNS
Description: as §1, §2, §3, §4, §5, §6

- EC50 (GATD3A): 23 to 30 µM
- EC50 (ALDH2): 23 to 30 µM
Structure (SMILES): CC(C)Cc1ccc(C(C)C(=O)NO)cc1 (centres unmarked) [Ibuproxam]
